Assays:
Assay in all cases: relative viability (nuclei count vs DMSO), 5 days (fraction); higher = more cells survive
QS11 + OSI-027 = compound: C1CC2=C(C1)C=C(C=C2)OC3=NC(=C4C(=N3)N(C=N4)CC5=CC=C(C=C5)C6=CC=CC=C6)N[C@@H](CC7=CC=CC=C7)CO [QS11] + COc1cccc2cc(-c3nc([C@H]4CC[C@H](C(=O)O)CC4)n4ncnc(N)c34)[nH]c12 [OSI-027] (partner 0.5 µM)
How it was run: (§1)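 Relative viability equals treated-well nuclei counts divided by vehicle-well nuclei counts. Counts came from 4× images of lung cancer cell lines grown in 1536-well plates for 5 days after pin-tool dosing on the day after seeding. Dosing used one drug alone or a fixed anchor-drug dose plus five library-drug doses (not always all listed) in √10 steps, and values are medians of duplicate plates.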

QS11 + Decitabine = compound: C1CC2=C(C1)C=C(C=C2)OC3=NC(=C4C(=N3)N(C=N4)CC5=CC=C(C=C5)C6=CC=CC=C6)N[C@@H](CC7=CC=CC=C7)CO [QS11] + Nc1ncn([C@H]2C[C@H](O)[C@@H](CO)O2)c(=O)n1 [Decitabine] (partner 2 µM)
How it was run: as §1

AZ628 + Navitoclax = compound: CC1=C(C=C(C=C1)NC(=O)C2=CC(=CC=C2)C(C)(C)C#N)NC3=CC4=C(C=C3)N=CN(C4=O)C [AZ628] + CC1(C)CCC(c2ccc(Cl)cc2)=C(CN2CCN(c3ccc(C(=O)NS(=O)(=O)c4ccc(N[C@H](CCN5CCOCC5)CSc5ccccc5)c(S(=O)(=O)C(F)(F)F)c4)cc3)CC2)C1 [Navitoclax] (partner 0.5 µM)
How it was run: as §1

AZ628 + AZD7762 = compound: CC1=C(C=C(C=C1)NC(=O)C2=CC(=CC=C2)C(C)(C)C#N)NC3=CC4=C(C=C3)N=CN(C4=O)C [AZ628] + NC(=O)Nc1cc(-c2cccc(F)c2)sc1C(=O)N[C@H]1CCCNC1 [AZD7762] (partner 0.2 µM)
How it was run: as §1

Cell Line | relative viability (QS11 + OSI-027; first compound 0.08 µM) | relative viability (QS11 + OSI-027; first compound 0.253 µM) | relative viability (QS11 + OSI-027; first compound 2.53 µM) | relative viability (QS11 + OSI-027; first compound 8 µM) | relative viability (QS11 + Decitabine; first compound 0.08 µM) | relative viability (QS11 + Decitabine; first compound 0.253 µM) | relative viability (QS11 + Decitabine; first compound 2.53 µM) | relative viability (QS11 + Decitabine; first compound 8 µM) | relative viability (AZ628 + Navitoclax; first compound 0.08 µM) | relative viability (AZ628 + Navitoclax; first compound 0.253 µM) | relative viability (AZ628 + Navitoclax; first compound 0.8 µM) | relative viability (AZ628 + Navitoclax; first compound 2.53 µM) | relative viability (AZ628 + Navitoclax; first compound 8 µM) | relative viability (AZ628 + AZD7762; first compound 0.08 µM) | relative viability (AZ628 + AZD7762; first compound 0.253 µM) | relative viability (AZ628 + AZD7762; first compound 0.8 µM) | relative viability (AZ628 + AZD7762; first compound 2.53 µM) | relative viability (AZ628 + AZD7762; first compound 8 µM) | relative viability (QS11 + OSI-027; first compound 0.8 µM) | relative viability (QS11 + Decitabine; first compound 0.8 µM)
HCC-366 | 0.877 | 0.749 | 0.742 | 0.257 | 0.346 | 0.329 | 0.369 | 0.192 | 1.01 | 1.09 | 0.997 | 0.97 | 0.598 | 0.248 | 0.193 | 0.235 | 0.207 | 0.149 |  | 
HCC-827 | 0.845 | 0.855 | 0.862 | 1.01 | 0.343 | 0.33 | 0.336 | 0.337 | 0.986 | 1 | 0.954 | 1.02 | 0.811 | 0.258 | 0.177 | 0.17 | 0.217 | 0.166 | 0.754 | 0.308
IA-LM |  |  |  |  |  |  |  |  | 1.15 | 0.716 | 0.641 | 0.761 | 0.0904 |  |  |  |  |  |  | 
LCLC-103H | 0.434 | 0.45 | 0.49 | 0.502 | 0.701 | 0.815 | 0.756 | 0.711 |  |  |  |  |  | 0.759 | 0.771 | 0.824 | 0.79 | 0.783 | 0.469 | 
NCI-H358 | 0.774 | 0.854 | 0.849 | 1.01 | 0.213 | 0.213 | 0.266 | 0.207 |  |  |  |  |  | 0.499 | 0.405 | 0.367 | 0.412 | 0.302 | 0.888 | 0.227
NCI-H520 | 0.196 | 0.265 | 0.175 | 0.268 | 0.567 | 0.513 | 0.537 | 0.531 | 1.18 | 0.842 | 1.05 | 0.968 | 0.772 |  |  |  |  |  | 0.297 | 0.531
NCI-H522 | 0.733 | 0.795 | 0.727 | 1.97 | 0.704 | 0.569 | 0.664 | 0.726 |  |  |  |  |  | 0.826 | 0.721 | 0.749 | 0.863 | 0.708 | 0.722 | 0.677
NCI-H650 | 0.513 | 0.513 | 0.483 | 0.456 | 0.283 | 0.365 | 0.298 | 0.322 |  |  |  |  |  | 1.14 | 1.24 | 1.37 | 1.14 | 0.691 | 0.548 | 0.347
NCI-H661 | 0.696 | 0.75 | 0.618 | 0.549 | 0.511 | 0.585 | 0.554 | 0.46 |  |  |  |  |  |  |  |  |  |  | 0.69 | 0.474
NCI-H1299 |  |  |  |  |  |  |  |  | 1.1 | 1.15 | 1.17 | 1.19 | 0.975 |  |  |  |  |  |  | 
NCI-H1563 | 0.67 | 0.775 | 0.745 | 0.693 |  |  |  |  |  |  |  |  |  |  |  |  |  |  | 0.741 | 
NCI-H1623 | 0.417 | 0.386 | 0.445 | 0.426 |  |  |  |  |  |  |  |  |  |  |  |  |  |  | 0.415 | 
NCI-H1648 |  | 0.26 | 0.275 | 0.247 | 0.516 | 0.436 | 0.443 | 0.665 |  |  |  |  |  | 0.871 | 0.579 | 0.524 | 0.494 | 0.587 |  | 0.476
NCI-H1650 | 0.58 | 0.549 | 0.547 | 0.396 | 0.453 | 0.447 | 0.56 | 0.406 | 1.34 | 1.22 | 1.38 | 1.15 | 0.949 |  |  |  |  |  | 0.642 | 0.296
NCI-H1703 |  |  |  |  |  |  |  |  | 0.751 | 0.311 | 0.294 | 0.354 | 0.253 | 0.118 | 0.124 | 0.134 | 0.139 | 0.0724 |  | 
NCI-H2009 | 0.66 | 0.639 | 0.448 | 0.462 | 0.362 | 0.426 | 0.409 | 0.371 | 1.11 | 0.94 | 0.98 | 1.04 | 0.455 |  |  |  |  |  | 0.53 | 0.364
NCI-H2023 | 0.477 | 0.344 | 0.486 | 0.364 | 0.231 | 0.227 | 0.249 | 0.224 | 1.01 | 1.02 | 1.03 | 0.996 | 0.762 |  |  |  |  |  | 0.52 | 0.217
NCI-H2228 | 0.534 | 0.424 | 0.74 | 0.597 |  |  |  |  | 0.829 | 1.13 | 1.03 | 1.01 | 0.839 |  |  |  |  |  | 0.538 | 
NCI-H2342 | 0.643 | 0.703 | 0.663 | 0.636 | 0.744 | 0.724 | 0.718 | 0.77 |  |  |  |  |  | 0.489 | 0.44 | 0.623 | 0.53 | 0.625 | 0.611 | 0.715
SK-LU-1 | 0.321 | 0.327 | 0.254 | 0.291 | 0.586 | 0.59 | 0.6 | 0.57 | 0.502 | 0.878 | 1.06 | 0.886 | 0.902 |  |  |  |  |  | 0.326 | 0.595
SK-MES-1 | 0.627 | 0.575 | 0.615 | 0.623 | 0.361 | 0.444 | 0.447 | 0.351 | 1.22 | 1.25 | 1.39 | 1.23 | 1.21 |  |  |  |  |  | 0.544 | 0.339
SW 900 | 0.547 | 0.601 | 0.487 | 0.423 | 0.37 | 0.475 | 0.491 | 0.412 |  |  |  |  |  | 0.552 | 0.552 | 0.494 | 0.634 | 0.378 | 0.661 | 0.413
SW 1573 | 0.583 | 0.655 | 0.465 | 0.278 | 0.548 | 0.612 | 0.475 | 0.388 | 0.905 | 0.746 | 0.851 | 0.902 | 0.436 |  |  |  |  |  | 0.734 | 0.558
UMC-11 | 0.474 | 0.481 | 0.492 | 0.57 | 0.318 | 0.482 | 0.543 | 0.651 | 0.311 | 0.378 | 0.334 | 0.313 | 0.418 |  |  |  |  |  | 0.501 | 0.604

— the supplement of paper PMC10307832
